Each structure is given as a SMILES string.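 48-hour exposure; five concentrations; linearly interpolated endpoints. At the GI50, growth is halved.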 The source made the active and inactive calls. Cut-off read from the data, not from the text of the source: active = GI50 up to about 1.1 µM and inactive = higher.

Among the test systems are ACHN; CAKI-1; CCRF-CEM; Hs-578T; M14; MCF7; MDA-MB-231; Malme-3M; OVCAR-8; RPMI-8226; RXF 393; SF-268; SK-MEL-5; SK-OV-3; SN12C; SNB-75; SR; T47D; UACC-257.
Assay in all cases: NCI-60 cell line screen, 48 h

Regarding `CCOn1cc(C[C@@]2(O)C(=O)OC3[C@@H](O)CO[C@@]32O)c2ccccc21` (stereo not given in full), the GI50 in the assay on ACHN was > 100 µM (inactive); in the assay with CAKI-1 it was > 100 µM (inactive); in the assay with CCRF-CEM, 36.5 µM (inactive); with Hs-578T, > 100 µM (inactive); in the assay with M14 it was > 100 µM (inactive); in the assay with MCF7 it was > 100 µM (inactive). In addition, the GI50 with MDA-MB-231, in the assay on Malme-3M, in the assay on OVCAR-8, in the assay with RPMI-8226, in the assay with RXF 393 and with SF-268 was > 100 µM (inactive) each time. Moreover, the GI50 with SK-MEL-5, in the assay with SK-OV-3, in the assay with SN12C, in the assay on SNB-75, with SR and in the assay on T47D was > 100 µM (inactive) each time. The GI50 in the assay with UACC-257 was > 100 µM (inactive).
Consider `O=C1C(/N=N/c2ccc(-c3nc4ccccc4[nH]3)cc2)NC(=S)N1c1ccccc1` (stereo not given), for which the GI50 is > 100 µM (inactive) in the assay with ACHN; > 100 µM (inactive) with CAKI-1; 10.7 µM (inactive) in the assay on CCRF-CEM; > 100 µM (inactive) in the assay with Hs-578T; > 100 µM (inactive) with M14; 10.5 µM (inactive) in the assay on MCF7. Moreover, the GI50 was > 100 µM (inactive) with MDA-MB-231; > 100 µM (inactive) with Malme-3M; 47.2 µM (inactive) in the assay with OVCAR-8; 22.1 µM (inactive) with RPMI-8226; 13.4 µM (inactive) in the assay on RXF 393; > 100 µM (inactive) in the assay on SF-268. Also, the GI50 in the assay with SK-MEL-5 is > 100 µM (inactive); in the assay on SK-OV-3, > 100 µM (inactive); in the assay with SN12C, > 100 µM (inactive); in the assay on SNB-75, 93.1 µM (inactive); in the assay with SR, 0.671 µM (active); with T47D, 18.8 µM (inactive). For the same molecule, the GI50 in the assay on UACC-257 was > 100 µM (inactive).
For the molecule `C1=N\c2ccc(cc2)/N=C\c2ccc(cc2)OCc2cccc(n2)COc2ccc/1cc2`, the GI50 with ACHN, in the assay on CAKI-1, with CCRF-CEM, with Hs-578T, in the assay with M14 and in the assay with MCF7 was > 100 µM (inactive) throughout. In addition, the GI50 in the assay on MDA-MB-231, in the assay with Malme-3M, in the assay on OVCAR-8, in the assay with RPMI-8226, in the assay with RXF 393 and with SF-268 was > 100 µM (inactive) throughout. The GI50 in the assay with SK-MEL-5, with SK-OV-3, in the assay on SN12C, in the assay on SNB-75, in the assay on SR and in the assay on T47D was > 100 µM (inactive) each time. Also, the GI50 in the assay with UACC-257 is > 100 µM (inactive).
Consider `NC1=CN2c3ccccc3N(CC(=O)O)C2C=C1` (stereo not given), for which the GI50 in the assay on ACHN, in the assay with CAKI-1, in the assay on CCRF-CEM, in the assay on Hs-578T, with M14 and with MCF7 was > 100 µM (inactive) in each case. Further, the GI50 in the assay on MDA-MB-231, with Malme-3M, in the assay on OVCAR-8, in the assay with RPMI-8226, in the assay on RXF 393 and in the assay with SF-268 was > 100 µM (inactive) in each case. Besides, the GI50 in the assay on SK-MEL-5, in the assay with SK-OV-3, in the assay on SNB-75, in the assay on SR, in the assay on T47D and with UACC-257 was > 100 µM (inactive) in each case.
Take `CCc1c[n+]([O-])c(C)cc1[N+](=O)[O-]`: the GI50 is 17.7 µM (inactive) in the assay on ACHN; 40.4 µM (inactive) in the assay on CAKI-1; > 100 µM (inactive) in the assay with CCRF-CEM; > 100 µM (inactive) with Hs-578T; 40.2 µM (inactive) in the assay on M14; 90.8 µM (inactive) with MCF7. In addition, the GI50 was 22.8 µM (inactive) in the assay with MDA-MB-231; 40.1 µM (inactive) with Malme-3M; 46.2 µM (inactive) in the assay on OVCAR-8; 33.5 µM (inactive) in the assay on RPMI-8226; 22.4 µM (inactive) with RXF 393; > 100 µM (inactive) with SF-268. In addition, the GI50 in the assay on SK-MEL-5 is > 100 µM (inactive); in the assay with SK-OV-3 it was > 100 µM (inactive); with SN12C it was 53.7 µM (inactive); in the assay with SNB-75, 78.3 µM (inactive); in the assay on SR, 33.6 µM (inactive); with T47D, > 100 µM (inactive). Further, in the assay with UACC-257, the GI50 was > 100 µM (inactive).
As for `CC(NC(=O)C(CC(=O)OCc1ccccc1)NC(=O)OCc1ccccc1)c1ccccc1` (stereo not given), the GI50 in the assay on ACHN is 67.5 µM (inactive); with CAKI-1, 83.4 µM (inactive); in the assay on Hs-578T, > 100 µM (inactive); in the assay on M14, 27.7 µM (inactive); with MCF7 it was > 100 µM (inactive); with MDA-MB-231 it was 79.3 µM (inactive). Further, the GI50 in the assay on Malme-3M was 73.3 µM (inactive); in the assay on OVCAR-8, > 100 µM (inactive); with RPMI-8226, > 100 µM (inactive); in the assay on RXF 393, 19.2 µM (inactive); with SF-268, > 100 µM (inactive); with SK-MEL-5, > 100 µM (inactive). Also, the GI50 with SK-OV-3 was 83.2 µM (inactive); in the assay with SN12C, > 100 µM (inactive); with SNB-75 it was > 100 µM (inactive); with SR it was > 100 µM (inactive); with T47D, > 100 µM (inactive); in the assay with UACC-257 it was > 10 µM (inactive).
With `O=C(O)c1c2c(cc3c1CC1(Cc4ccccc4C1)C3)CCC2`, the GI50 was 32.7 µM (inactive) in the assay with ACHN; 53.2 µM (inactive) in the assay on CAKI-1; 23.3 µM (inactive) with CCRF-CEM; 63.8 µM (inactive) in the assay with Hs-578T; 96.2 µM (inactive) in the assay with MCF7; 95.7 µM (inactive) in the assay with MDA-MB-231. Also, the GI50 was 51.3 µM (inactive) with Malme-3M; 63.1 µM (inactive) with OVCAR-8; 33.9 µM (inactive) in the assay on RPMI-8226; > 100 µM (inactive) in the assay on RXF 393; > 100 µM (inactive) with SF-268; 59.7 µM (inactive) with SK-MEL-5. The GI50 is > 100 µM (inactive) in the assay on SK-OV-3; 67.6 µM (inactive) with SN12C; > 100 µM (inactive) in the assay on SNB-75; 52.8 µM (inactive) in the assay with SR; 77.1 µM (inactive) in the assay on T47D; > 100 µM (inactive) in the assay with UACC-257.
In the case of `CC1(C)C=C(/C=N/Nc2ccc([N+](=O)[O-])cc2)C(C#N)=C(O)C1(C#N)C#N`, the GI50 in the assay on ACHN, with CAKI-1, in the assay with CCRF-CEM, in the assay with Hs-578T, in the assay on M14 and in the assay on MCF7 was > 100 µM (inactive) each time. Moreover, the GI50 in the assay on MDA-MB-231, with Malme-3M, in the assay on OVCAR-8, in the assay with RPMI-8226, in the assay on RXF 393 and in the assay on SF-268 was > 100 µM (inactive) throughout. The GI50 with SK-MEL-5, in the assay with SK-OV-3, with SN12C, in the assay with SNB-75, with SR and in the assay on T47D was > 100 µM (inactive) in each case. Also, the GI50 with UACC-257 was > 100 µM (inactive).
As to `NNc1nc2ccccc2c(=O)n1NC(=O)C(=O)Nc1cccc(C(F)(F)F)c1`, the GI50 in the assay with ACHN, in the assay with CAKI-1, in the assay on CCRF-CEM, in the assay on Hs-578T, in the assay on M14 and in the assay on MCF7 was > 100 µM (inactive) throughout. For the same molecule, the GI50 with MDA-MB-231, in the assay on Malme-3M, in the assay with OVCAR-8, in the assay with RPMI-8226, in the assay on RXF 393 and in the assay on SF-268 was > 100 µM (inactive) throughout. In addition, the GI50 in the assay with SK-MEL-5 was > 100 µM (inactive); in the assay with SK-OV-3, > 100 µM (inactive); in the assay on SN12C it was > 100 µM (inactive); with SNB-75, > 100 µM (inactive); in the assay with SR, > 10 µM (inactive); in the assay on T47D, > 100 µM (inactive). The GI50 in the assay with UACC-257 was > 100 µM (inactive).
On to `CCOC(=O)C(Cc1cccn1C(=O)OC(C)(C)C)[N+](=O)[O-]` (stereo not given), for which the GI50 in the assay on ACHN is 22.3 µM (inactive); in the assay on CAKI-1, 24.7 µM (inactive); in the assay on CCRF-CEM, 17.1 µM (inactive); in the assay on Hs-578T, 29.9 µM (inactive); with M14, 19.2 µM (inactive); in the assay with MCF7, 37.7 µM (inactive). Further, the GI50 in the assay with MDA-MB-231 was 19 µM (inactive); in the assay with Malme-3M it was 28.1 µM (inactive); in the assay with OVCAR-8 it was 31.7 µM (inactive); in the assay on RPMI-8226 it was 20.5 µM (inactive); with RXF 393, 17.6 µM (inactive); in the assay with SF-268, 33.9 µM (inactive). Moreover, the GI50 with SK-MEL-5 was 21.2 µM (inactive); in the assay with SK-OV-3, > 100 µM (inactive); in the assay with SN12C, 23.9 µM (inactive); with SNB-75, 23.7 µM (inactive); in the assay with SR, 19 µM (inactive); with T47D, 33.4 µM (inactive). Further, the GI50 in the assay on UACC-257 is 28.3 µM (inactive).
For `NC(CSC1c2ccccc2-c2ccccc21)C(=O)O` (stereo not given), the GI50 in the assay on ACHN is > 100 µM (inactive); in the assay with CAKI-1, > 100 µM (inactive); in the assay with CCRF-CEM it was > 100 µM (inactive); in the assay on Hs-578T, 23.9 µM (inactive); in the assay on M14, > 100 µM (inactive); with MCF7 it was > 100 µM (inactive). Also, the GI50 with MDA-MB-231, in the assay with Malme-3M, in the assay with OVCAR-8, in the assay with RPMI-8226, in the assay on RXF 393 and in the assay with SK-MEL-5 was > 100 µM (inactive) each time. For the same molecule, the GI50 in the assay on SK-OV-3 was > 100 µM (inactive); in the assay on SN12C it was > 100 µM (inactive); in the assay with SNB-75, > 100 µM (inactive); with SR, 69.2 µM (inactive); in the assay with T47D, > 100 µM (inactive); with UACC-257, > 100 µM (inactive).

Values taken from ChEMBL document CHEMBL1201862, “PubChem BioAssay data set” (2004).
